Source: patent publication US20140227419A1, “ANTI-FUNGAL AGENT FOR PROCESSED CEREAL FOODS” (NAGASE & co., LTD., priority 2011, published 2014)

System: mold
Experiment: Anti-fungal effect by spraying method (2): loaves with calcium propionate kneaded into the dough sprayed, mold growth checked visually
Details: 0.3% calcium propionate kneaded into bread dough; sprayed with nothing
Description: Three hundred and thirty grams of bread dough (dough) of the raw materials blended in the ratio shown in Table 1 (Example 1) was mixed at a low speed for 5 minutes, and then, was mixed at a high speed for 7 minutes. The dough was retained at 35° C. for 100 minutes to be leavened, and then, was baked at 140° C. for 20 minutes to obtain a loaf of bread (hereinafter, referred to as a “loaf”).
The obtained loaf was left to room temperature, and the entire surface of the loaf (approximately 280 g) was sprayed with a spraying agent (approximately 10 μL/cm^2) shown in Table 2 (“0.1% chitinase” means a concentration when 1 mg of chitinase is added with respect to 1 ml of the spraying agent). The loaves were retained in the atmosphere to dry the surface, and then, the loaves were independently put into separate plastic bags and were preserved at a room temperature. The presence or the absence of the growth of mold was checked visually. […]
The anti-fungal effects of the spraying agents 1 to 3 were evaluated in the same manner as in Example 1, except that the raw materials were blended in the ratio shown in Table 1 (Example 2) instead of the ratio shown in Table 1 (Example 1). […]

Q: `CCC(=O)[O-].CCC(=O)[O-].[Ca+2]` [calcium propionate] was tested. Which “Length of preservation time of bread with calcium propionate kneaded into the dough, without spraying” value did it give?
A: 11 days
